Experimental data from ChEMBL document CHEMBL1201861, “Genomics of Drug Sensitity in Cancer screening data, Wellcome Trust Sanger Institute”.

Each molecule was assayed on TK-10 (assay: cells). Details: Homo sapiens, TK-10.
Type: functional, cell-based, Homo sapiens
Description: SANGER: Inhibition of human TK10 cell growth in a cell viability assay.

| SMILES | IC50 |
| --- | --- |
| COc1cc2c(Nc3ccc(NC(=O)c4ccccc4)cc3)ncnc2cc1OCCCN1CCOCC1 | > 4 µM |

Each molecule was assayed on MMAC-SF (assay: cells). Details: Homo sapiens, MMAC-SF.
Type: functional, cell-based, Homo sapiens
Description: SANGER: Inhibition of human MMAC-SF cell growth in a cell viability assay.

| SMILES | IC50 |
| --- | --- |
| COc1cc2c(Nc3ccc(NC(=O)c4ccccc4)cc3)ncnc2cc1OCCCN1CCOCC1 | > 4 µM |

Each molecule was assayed on KURAMOCHI (assay: cells). Details: Homo sapiens, KURAMOCHI.
Type: functional, cell-based, Homo sapiens
Description: SANGER: Inhibition of human KURAMOCHI cell growth in a cell viability assay.

| SMILES | IC50 |
| --- | --- |
| COc1cc2c(Nc3ccc(NC(=O)c4ccccc4)cc3)ncnc2cc1OCCCN1CCOCC1 | > 4 µM |

What follows are molecules tested on no-10 (assay: cells). Details: Homo sapiens.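 Also: growth inhibition of no-10 cells, read out with a cell viability assay.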
Type: functional, cell-based, Homo sapiens
Description: SANGER: Inhibition of human no-10 cell growth in a cell viability assay.

| SMILES | IC50 |
| --- | --- |
| COc1cc2c(Nc3ccc(NC(=O)c4ccccc4)cc3)ncnc2cc1OCCCN1CCOCC1 | > 4 µM |

The molecules below were run on MEG-01 (assay: cells). Details: Homo sapiens, MEG-01.
Type: functional, cell-based, Homo sapiens
Description: SANGER: Inhibition of human MEG-01 cell growth in a cell viability assay.

| SMILES | IC50 |
| --- | --- |
| COc1cc2c(Nc3ccc(NC(=O)c4ccccc4)cc3)ncnc2cc1OCCCN1CCOCC1 | > 4 µM |

The molecules below were run on NCI-H1770 (assay: cells). Details: Homo sapiens, NCI-H1770.
Type: functional, cell-based, Homo sapiens
Description: SANGER: Inhibition of human NCI-H1770 cell growth in a cell viability assay.

| SMILES | IC50 |
| --- | --- |
| COc1cc2c(Nc3ccc(NC(=O)c4ccccc4)cc3)ncnc2cc1OCCCN1CCOCC1 | > 4 µM |

Each molecule was assayed on NCI-H23 (assay: cells). Details: Homo sapiens, NCI-H23.
Type: functional, cell-based, Homo sapiens
Description: SANGER: Inhibition of human NCI-H23 cell growth in a cell viability assay.

| SMILES | IC50 |
| --- | --- |
| COc1cc2c(Nc3ccc(NC(=O)c4ccccc4)cc3)ncnc2cc1OCCCN1CCOCC1 | > 4 µM |

What follows are molecules tested on KE-37 (assay: cells). Details: Homo sapiens, KE-37.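 Also: growth inhibition of KE-37 cells, read out with a cell viability assay.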
Type: functional, cell-based, Homo sapiens
Description: SANGER: Inhibition of human KE-37 cell growth in a cell viability assay.

| SMILES | IC50 |
| --- | --- |
| COc1cc2c(Nc3ccc(NC(=O)c4ccccc4)cc3)ncnc2cc1OCCCN1CCOCC1 | 1.21 µM |

These molecules were tested on NCI-H209 (assay: cells). Details: Homo sapiens, NCI-H209.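 Also: growth inhibition of human NCI-H209 cells, measured by a cell viability assay.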
Type: functional, cell-based, Homo sapiens
Description: SANGER: Inhibition of human NCI-H209 cell growth in a cell viability assay.

| SMILES | IC50 |
| --- | --- |
| COc1cc2c(Nc3ccc(NC(=O)c4ccccc4)cc3)ncnc2cc1OCCCN1CCOCC1 | 1.17 µM |

Each molecule was assayed on SW 954 (assay: cells). Details: Homo sapiens, SW 954.
Type: functional, cell-based, Homo sapiens
Description: SANGER: Inhibition of human SW954 cell growth in a cell viability assay.

| SMILES | IC50 |
| --- | --- |
| COc1cc2c(Nc3ccc(NC(=O)c4ccccc4)cc3)ncnc2cc1OCCCN1CCOCC1 | 0.836 µM |

Each molecule was assayed on KS-1 (assay: cells). Details: Homo sapiens, KS-1.
Type: functional, cell-based, Homo sapiens
Description: SANGER: Inhibition of human KS-1 cell growth in a cell viability assay.

| SMILES | IC50 |
| --- | --- |
| COc1cc2c(Nc3ccc(NC(=O)c4ccccc4)cc3)ncnc2cc1OCCCN1CCOCC1 | > 4 µM |

Each molecule was assayed on ES8 (assay: cells). Details: Homo sapiens, ES8.
Type: functional, cell-based, Homo sapiens
Description: SANGER: Inhibition of human ES8 cell growth in a cell viability assay.

| SMILES | IC50 |
| --- | --- |
| COc1cc2c(Nc3ccc(NC(=O)c4ccccc4)cc3)ncnc2cc1OCCCN1CCOCC1 | 0.498 µM |

These molecules were tested on LU-134-A (assay: cells). Details: Homo sapiens, LU-134-A.
Type: functional, cell-based, Homo sapiens
Description: SANGER: Inhibition of human LU-134-A cell growth in a cell viability assay.

| SMILES | IC50 |
| --- | --- |
| COc1cc2c(Nc3ccc(NC(=O)c4ccccc4)cc3)ncnc2cc1OCCCN1CCOCC1 | > 4 µM |

Each molecule was assayed on HD-MY-Z (assay: cells). Details: Homo sapiens, HD-MY-Z.
Type: functional, cell-based, Homo sapiens
Description: SANGER: Inhibition of human HD-MY-Z cell growth in a cell viability assay.

| SMILES | IC50 |
| --- | --- |
| COc1cc2c(Nc3ccc(NC(=O)c4ccccc4)cc3)ncnc2cc1OCCCN1CCOCC1 | > 4 µM |

The molecules below were run on IST-MES1 (assay: cells). Details: Homo sapiens, IST-MES1.
Type: functional, cell-based, Homo sapiens
Description: SANGER: Inhibition of human IST-MES1 cell growth in a cell viability assay.

| SMILES | IC50 |
| --- | --- |
| COc1cc2c(Nc3ccc(NC(=O)c4ccccc4)cc3)ncnc2cc1OCCCN1CCOCC1 | > 4 µM |

What follows are molecules tested on HL-60 (assay: cells). Details: Homo sapiens, HL-60.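 Also: growth inhibition of human HL-60 cells, read out with a cell viability assay.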
Type: functional, cell-based, Homo sapiens
Description: SANGER: Inhibition of human HL-60 cell growth in a cell viability assay.

| SMILES | IC50 |
| --- | --- |
| COc1cc2c(Nc3ccc(NC(=O)c4ccccc4)cc3)ncnc2cc1OCCCN1CCOCC1 | 2.59 µM |

Each molecule was assayed on MC116 (assay: cells). Details: Homo sapiens, MC116.
Type: functional, cell-based, Homo sapiens
Description: SANGER: Inhibition of human MC116 cell growth in a cell viability assay.

| SMILES | IC50 |
| --- | --- |
| COc1cc2c(Nc3ccc(NC(=O)c4ccccc4)cc3)ncnc2cc1OCCCN1CCOCC1 | > 4 µM |

What follows are molecules tested on LU-139 (assay: cells). Details: Homo sapiens, LU-139.
Type: functional, cell-based, Homo sapiens
Description: SANGER: Inhibition of human LU-139 cell growth in a cell viability assay.

| SMILES | IC50 |
| --- | --- |
| COc1cc2c(Nc3ccc(NC(=O)c4ccccc4)cc3)ncnc2cc1OCCCN1CCOCC1 | 3.83 µM |

These molecules were tested on HCC1187 (assay: cells). Details: Homo sapiens, HCC1187.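 Also: growth inhibition of HCC1187 cells, read out with a cell viability assay.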
Type: functional, cell-based, Homo sapiens
Description: SANGER: Inhibition of human HCC1187 cell growth in a cell viability assay.

| SMILES | IC50 |
| --- | --- |
| COc1cc2c(Nc3ccc(NC(=O)c4ccccc4)cc3)ncnc2cc1OCCCN1CCOCC1 | > 4 µM |

The molecules below were run on COR-L88 (assay: cells). Details: Homo sapiens, COR-L88.
Type: functional, cell-based, Homo sapiens
Description: SANGER: Inhibition of human COR-L88 cell growth in a cell viability assay.

| SMILES | IC50 |
| --- | --- |
| COc1cc2c(Nc3ccc(NC(=O)c4ccccc4)cc3)ncnc2cc1OCCCN1CCOCC1 | > 4 µM |

These molecules were tested on NOS-1 (assay: cells). Details: Homo sapiens, NOS-1.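 Also: growth inhibition of the human NOS-1 cell line, read out with a cell viability assay.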
Type: functional, cell-based, Homo sapiens
Description: SANGER: Inhibition of human NOS-1 cell growth in a cell viability assay.

| SMILES | IC50 |
| --- | --- |
| COc1cc2c(Nc3ccc(NC(=O)c4ccccc4)cc3)ncnc2cc1OCCCN1CCOCC1 | > 4 µM |

What follows are molecules tested on ES5 (assay: cells). Details: Homo sapiens, ES5.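 Also: growth inhibition of human ES5 cells, read out by a cell viability assay.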
Type: functional, cell-based, Homo sapiens
Description: SANGER: Inhibition of human ES5 cell growth in a cell viability assay.

| SMILES | IC50 |
| --- | --- |
| COc1cc2c(Nc3ccc(NC(=O)c4ccccc4)cc3)ncnc2cc1OCCCN1CCOCC1 | 1 µM |

Each molecule was assayed on HCE-4 (assay: cells). Details: Homo sapiens, HCE-4.
Type: functional, cell-based, Homo sapiens
Description: SANGER: Inhibition of human HCE-4 cell growth in a cell viability assay.

| SMILES | IC50 |
| --- | --- |
| COc1cc2c(Nc3ccc(NC(=O)c4ccccc4)cc3)ncnc2cc1OCCCN1CCOCC1 | > 4 µM |

Each molecule was assayed on GI-1 (assay: cells). Details: Homo sapiens, GI-1.
Type: functional, cell-based, Homo sapiens
Description: SANGER: Inhibition of human GI-1 cell growth in a cell viability assay.

| SMILES | IC50 |
| --- | --- |
| COc1cc2c(Nc3ccc(NC(=O)c4ccccc4)cc3)ncnc2cc1OCCCN1CCOCC1 | 3.26 µM |

What follows are molecules tested on SF-539 (assay: cells). Details: Homo sapiens, SF-539.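 Also: Read-out is a cell viability assay, with IC50 reflecting inhibition of cell growth.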
Type: functional, cell-based, Homo sapiens
Description: SANGER: Inhibition of human SF539 cell growth in a cell viability assay.

| SMILES | IC50 |
| --- | --- |
| COc1cc2c(Nc3ccc(NC(=O)c4ccccc4)cc3)ncnc2cc1OCCCN1CCOCC1 | > 4 µM |

Each molecule was assayed on DJM-1 (assay: cells). Details: Homo sapiens, DJM-1.
Type: functional, cell-based, Homo sapiens
Description: SANGER: Inhibition of human DJM-1 cell growth in a cell viability assay.

| SMILES | IC50 |
| --- | --- |
| COc1cc2c(Nc3ccc(NC(=O)c4ccccc4)cc3)ncnc2cc1OCCCN1CCOCC1 | > 4 µM |

The molecules below were run on K562 (assay: cells). Details: Homo sapiens, K562.
Type: functional, cell-based, Homo sapiens
Description: SANGER: Inhibition of human K-562 cell growth in a cell viability assay.

| SMILES | IC50 |
| --- | --- |
| COc1cc2c(Nc3ccc(NC(=O)c4ccccc4)cc3)ncnc2cc1OCCCN1CCOCC1 | > 4 µM |

Each molecule was assayed on KG-1 (assay: cells). Details: Homo sapiens, KG-1.
Type: functional, cell-based, Homo sapiens
Description: SANGER: Inhibition of human KG-1 cell growth in a cell viability assay.

| SMILES | IC50 |
| --- | --- |
| COc1cc2c(Nc3ccc(NC(=O)c4ccccc4)cc3)ncnc2cc1OCCCN1CCOCC1 | 3.2 µM |

These molecules were tested on RKO (assay: cells). Details: Homo sapiens, RKO.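 Also: growth inhibition of human RKO cells, read out with a cell viability assay.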
Type: functional, cell-based, Homo sapiens
Description: SANGER: Inhibition of human RKO cell growth in a cell viability assay.

| SMILES | IC50 |
| --- | --- |
| COc1cc2c(Nc3ccc(NC(=O)c4ccccc4)cc3)ncnc2cc1OCCCN1CCOCC1 | 0.707 µM |

Each molecule was assayed on NTERA-2-cl-D1 (assay: cells). Details: Homo sapiens, NTERA-2-cl-D1.
Type: functional, cell-based, Homo sapiens
Description: SANGER: Inhibition of human NTERA-S-cl-D1 cell growth in a cell viability assay.

| SMILES | IC50 |
| --- | --- |
| COc1cc2c(Nc3ccc(NC(=O)c4ccccc4)cc3)ncnc2cc1OCCCN1CCOCC1 | > 4 µM |

The molecules below were run on NCI-H1155 (assay: cells). Details: Homo sapiens, NCI-H1155.
Type: functional, cell-based, Homo sapiens
Description: SANGER: Inhibition of human NCI-H1155 cell growth in a cell viability assay.

| SMILES | IC50 |
| --- | --- |
| COc1cc2c(Nc3ccc(NC(=O)c4ccccc4)cc3)ncnc2cc1OCCCN1CCOCC1 | 3.04 µM |

The molecules below were run on NCI-H1838 (assay: cells). Details: Homo sapiens, NCI-H1838.
Type: functional, cell-based, Homo sapiens
Description: SANGER: Inhibition of human NCI-H1838 cell growth in a cell viability assay.

| SMILES | IC50 |
| --- | --- |
| COc1cc2c(Nc3ccc(NC(=O)c4ccccc4)cc3)ncnc2cc1OCCCN1CCOCC1 | > 4 µM |

Each molecule was assayed on OS-RC-2 (assay: cells). Details: Homo sapiens, OS-RC-2.
Type: functional, cell-based, Homo sapiens
Description: SANGER: Inhibition of human OS-RC-2 cell growth in a cell viability assay.

| SMILES | IC50 |
| --- | --- |
| COc1cc2c(Nc3ccc(NC(=O)c4ccccc4)cc3)ncnc2cc1OCCCN1CCOCC1 | > 4 µM |

What follows are molecules tested on EW-16 (assay: cells). Details: Homo sapiens, EW-16.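 Also: growth inhibition of human EW-16 cells, read out as cell viability.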
Type: functional, cell-based, Homo sapiens
Description: SANGER: Inhibition of human EW-16 cell growth in a cell viability assay.

| SMILES | IC50 |
| --- | --- |
| COc1cc2c(Nc3ccc(NC(=O)c4ccccc4)cc3)ncnc2cc1OCCCN1CCOCC1 | 3.23 µM |

What follows are molecules tested on RCC10RGB (assay: cells). Details: Homo sapiens, RCC10RGB.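 Also: growth inhibition of human RCC10RGB cells, read out by a cell viability assay.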
Type: functional, cell-based, Homo sapiens
Description: SANGER: Inhibition of human RCC10RGB cell growth in a cell viability assay.

| SMILES | IC50 |
| --- | --- |
| COc1cc2c(Nc3ccc(NC(=O)c4ccccc4)cc3)ncnc2cc1OCCCN1CCOCC1 | > 4 µM |

What follows are molecules tested on EKVX (assay: cells). Details: Homo sapiens, EKVX.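 Also: growth inhibition of human EKVX cells, read out with a cell viability assay.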
Type: functional, cell-based, Homo sapiens
Description: SANGER: Inhibition of human EKVX cell growth in a cell viability assay.

| SMILES | IC50 |
| --- | --- |
| COc1cc2c(Nc3ccc(NC(=O)c4ccccc4)cc3)ncnc2cc1OCCCN1CCOCC1 | > 4 µM |

These molecules were tested on CW-2 (assay: cells). Details: Homo sapiens, CW-2.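 Also: growth inhibition of CW-2 cells, read out by a cell viability assay.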
Type: functional, cell-based, Homo sapiens
Description: SANGER: Inhibition of human CW-2 cell growth in a cell viability assay.

| SMILES | IC50 |
| --- | --- |
| COc1cc2c(Nc3ccc(NC(=O)c4ccccc4)cc3)ncnc2cc1OCCCN1CCOCC1 | > 4 µM |

The molecules below were run on A388 (assay: cells). Details: Homo sapiens, A388.
Type: functional, cell-based, Homo sapiens
Description: SANGER: Inhibition of human A388 cell growth in a cell viability assay.

| SMILES | IC50 |
| --- | --- |
| COc1cc2c(Nc3ccc(NC(=O)c4ccccc4)cc3)ncnc2cc1OCCCN1CCOCC1 | 3.5 µM |

The molecules below were run on MLMA (assay: cells). Details: Homo sapiens, MLMA.
Type: functional, cell-based, Homo sapiens
Description: SANGER: Inhibition of human MLMA cell growth in a cell viability assay.

| SMILES | IC50 |
| --- | --- |
| COc1cc2c(Nc3ccc(NC(=O)c4ccccc4)cc3)ncnc2cc1OCCCN1CCOCC1 | > 4 µM |

The molecules below were run on KINGS-1 (assay: cells). Details: Homo sapiens, KINGS-1.
Type: functional, cell-based, Homo sapiens
Description: SANGER: Inhibition of human KINGS-1 cell growth in a cell viability assay.

| SMILES | IC50 |
| --- | --- |
| COc1cc2c(Nc3ccc(NC(=O)c4ccccc4)cc3)ncnc2cc1OCCCN1CCOCC1 | > 4 µM |

Each molecule was assayed on KM-H2 (assay: cells). Details: Homo sapiens, KM-H2.
Type: functional, cell-based, Homo sapiens
Description: SANGER: Inhibition of human KM-H2 cell growth in a cell viability assay.

| SMILES | IC50 |
| --- | --- |
| COc1cc2c(Nc3ccc(NC(=O)c4ccccc4)cc3)ncnc2cc1OCCCN1CCOCC1 | > 4 µM |

What follows are molecules tested on LB2241-RCC (assay: cells). Details: Homo sapiens, LB2241-RCC.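 Also: cell viability assay measuring how strongly the cultured human renal carcinoma line is prevented from growing.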
Type: functional, cell-based, Homo sapiens
Description: SANGER: Inhibition of human LB2241-RCC cell growth in a cell viability assay.

| SMILES | IC50 |
| --- | --- |
| COc1cc2c(Nc3ccc(NC(=O)c4ccccc4)cc3)ncnc2cc1OCCCN1CCOCC1 | 1.04 µM |

What follows are molecules tested on Mo (assay: cells). Details: Homo sapiens, Mo.
Type: functional, cell-based, Homo sapiens
Description: SANGER: Inhibition of human Mo-T cell growth in a cell viability assay.

| SMILES | IC50 |
| --- | --- |
| COc1cc2c(Nc3ccc(NC(=O)c4ccccc4)cc3)ncnc2cc1OCCCN1CCOCC1 | > 4 µM |

What follows are molecules tested on PSN1 (assay: cells). Details: Homo sapiens, PSN1.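 Also: suppression of growth of human PSN1 cells, read out by a cell viability assay.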
Type: functional, cell-based, Homo sapiens
Description: SANGER: Inhibition of human PSN1 cell growth in a cell viability assay.

| SMILES | IC50 |
| --- | --- |
| COc1cc2c(Nc3ccc(NC(=O)c4ccccc4)cc3)ncnc2cc1OCCCN1CCOCC1 | > 4 µM |

Each molecule was assayed on A4-Fuk (assay: cells). Details: Homo sapiens, A4-Fuk.
Type: functional, cell-based, Homo sapiens
Description: SANGER: Inhibition of human A4-Fuk cell growth in a cell viability assay.

| SMILES | IC50 |
| --- | --- |
| COc1cc2c(Nc3ccc(NC(=O)c4ccccc4)cc3)ncnc2cc1OCCCN1CCOCC1 | 3.77 µM |

The molecules below were run on SHP77 (assay: cells). Details: Homo sapiens, SHP77.
Type: functional, cell-based, Homo sapiens, SHP-77
Description: SANGER: Inhibition of human SHP-77 cell growth in a cell viability assay.

| SMILES | IC50 |
| --- | --- |
| COc1cc2c(Nc3ccc(NC(=O)c4ccccc4)cc3)ncnc2cc1OCCCN1CCOCC1 | > 4 µM |

These molecules were tested on COLO-320-HSR (assay: cells). Details: Homo sapiens, COLO-320-HSR.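 Also: growth inhibition of COLO-320-HSR cells, determined with a cell viability assay.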
Type: functional, cell-based, Homo sapiens
Description: SANGER: Inhibition of human COLO-320-HSR cell growth in a cell viability assay.

| SMILES | IC50 |
| --- | --- |
| COc1cc2c(Nc3ccc(NC(=O)c4ccccc4)cc3)ncnc2cc1OCCCN1CCOCC1 | > 4 µM |

The molecules below were run on MOLT-4 (assay: cells). Details: Homo sapiens, MOLT-4.
Type: functional, cell-based, Homo sapiens
Description: SANGER: Inhibition of human MOLT-4 cell growth in a cell viability assay.

| SMILES | IC50 |
| --- | --- |
| COc1cc2c(Nc3ccc(NC(=O)c4ccccc4)cc3)ncnc2cc1OCCCN1CCOCC1 | 0.9 µM |
